The results in this text go back to patent publication US11970463B2, “Compounds and their use” (ASTRAZENECA AB, priority 2021, dated 2024).

The structures appear in SMILES notation. Values after ≈ are worked out from the molar mass of the structure shown. Read-outs that look alike come from different tables or passages of the source.

One data set deals with hERG (Homo sapiens (Human), UniProt Q12809). The experiment in a line: hERG assay (Test D), SyncroPatch 384PE patch clamp, hERG-expressing CHO cells. In kind it is cell-based. Particulars: rt. In general terms: hERG is a cardiac potassium channel; its block is linked to QT prolongation.
hERG, sequence (Q12809 whole entry): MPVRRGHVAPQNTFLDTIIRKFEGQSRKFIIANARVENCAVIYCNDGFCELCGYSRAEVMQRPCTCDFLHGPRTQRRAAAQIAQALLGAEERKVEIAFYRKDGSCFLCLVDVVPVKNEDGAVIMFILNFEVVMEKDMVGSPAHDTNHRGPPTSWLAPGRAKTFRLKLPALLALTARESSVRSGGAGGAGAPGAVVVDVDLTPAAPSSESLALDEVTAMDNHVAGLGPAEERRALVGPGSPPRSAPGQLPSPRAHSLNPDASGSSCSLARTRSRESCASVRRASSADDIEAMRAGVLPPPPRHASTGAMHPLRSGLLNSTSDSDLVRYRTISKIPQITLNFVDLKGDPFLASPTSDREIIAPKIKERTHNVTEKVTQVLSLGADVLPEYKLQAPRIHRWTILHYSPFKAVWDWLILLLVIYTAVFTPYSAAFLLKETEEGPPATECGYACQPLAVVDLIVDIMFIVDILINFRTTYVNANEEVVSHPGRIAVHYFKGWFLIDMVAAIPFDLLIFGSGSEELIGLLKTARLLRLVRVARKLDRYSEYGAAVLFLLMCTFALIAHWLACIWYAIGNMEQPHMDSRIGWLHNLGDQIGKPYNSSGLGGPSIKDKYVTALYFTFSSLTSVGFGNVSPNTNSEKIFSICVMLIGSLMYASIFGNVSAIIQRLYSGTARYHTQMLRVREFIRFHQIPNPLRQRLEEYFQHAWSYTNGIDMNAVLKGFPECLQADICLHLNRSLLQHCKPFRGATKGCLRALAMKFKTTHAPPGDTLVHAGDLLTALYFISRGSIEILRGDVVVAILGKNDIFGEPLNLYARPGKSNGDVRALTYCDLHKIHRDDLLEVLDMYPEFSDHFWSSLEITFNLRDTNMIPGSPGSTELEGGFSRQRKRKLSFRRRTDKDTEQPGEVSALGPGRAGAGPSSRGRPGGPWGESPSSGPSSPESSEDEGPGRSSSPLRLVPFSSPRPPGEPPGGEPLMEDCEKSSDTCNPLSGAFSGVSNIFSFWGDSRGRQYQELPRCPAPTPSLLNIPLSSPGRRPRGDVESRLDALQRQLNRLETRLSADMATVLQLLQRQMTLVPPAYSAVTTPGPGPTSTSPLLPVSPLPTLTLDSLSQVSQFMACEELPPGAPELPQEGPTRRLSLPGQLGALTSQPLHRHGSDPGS
A short description of the next data set: Solubility (Test E). In kind it is physicochemical.
Data set [1] in a line: Solubility (Test F), McIlvaine buffer pH 6.5. Particulars: disodium hydrogenphosphate-citric acid (McIlvaine) buffer, 25 °C, pH 6.5, aqueous buffer, thermodynamic from solid, McIlvaine buffer pH 6.5, 25° C., 24 to 72 h; theoretical maximum 200 μM. In kind it is physicochemical.
The next data set deals with IL-1β production. The data set can be described thus: LPS/ATP test in mice, peritoneal IL-1β by ELISA. As to conditions: Mus musculus, 3 mg/kg orally, LPS/ATP i.p. In kind it is in vivo, BALB/cAJcl mice. (In general: An ELISA detects its analyte on a solid surface through an enzyme-linked reagent.)
Data set [2] deals with T1, Human NLRP3 (Homo sapiens (Human), UniProt Q96P20). Particulars: Test C IC50, IL-1β release, THP-1 cells, LPS 2 μg/mL 24 h, BzATP 1 mM.
T1 sequence (Q96P20 whole entry): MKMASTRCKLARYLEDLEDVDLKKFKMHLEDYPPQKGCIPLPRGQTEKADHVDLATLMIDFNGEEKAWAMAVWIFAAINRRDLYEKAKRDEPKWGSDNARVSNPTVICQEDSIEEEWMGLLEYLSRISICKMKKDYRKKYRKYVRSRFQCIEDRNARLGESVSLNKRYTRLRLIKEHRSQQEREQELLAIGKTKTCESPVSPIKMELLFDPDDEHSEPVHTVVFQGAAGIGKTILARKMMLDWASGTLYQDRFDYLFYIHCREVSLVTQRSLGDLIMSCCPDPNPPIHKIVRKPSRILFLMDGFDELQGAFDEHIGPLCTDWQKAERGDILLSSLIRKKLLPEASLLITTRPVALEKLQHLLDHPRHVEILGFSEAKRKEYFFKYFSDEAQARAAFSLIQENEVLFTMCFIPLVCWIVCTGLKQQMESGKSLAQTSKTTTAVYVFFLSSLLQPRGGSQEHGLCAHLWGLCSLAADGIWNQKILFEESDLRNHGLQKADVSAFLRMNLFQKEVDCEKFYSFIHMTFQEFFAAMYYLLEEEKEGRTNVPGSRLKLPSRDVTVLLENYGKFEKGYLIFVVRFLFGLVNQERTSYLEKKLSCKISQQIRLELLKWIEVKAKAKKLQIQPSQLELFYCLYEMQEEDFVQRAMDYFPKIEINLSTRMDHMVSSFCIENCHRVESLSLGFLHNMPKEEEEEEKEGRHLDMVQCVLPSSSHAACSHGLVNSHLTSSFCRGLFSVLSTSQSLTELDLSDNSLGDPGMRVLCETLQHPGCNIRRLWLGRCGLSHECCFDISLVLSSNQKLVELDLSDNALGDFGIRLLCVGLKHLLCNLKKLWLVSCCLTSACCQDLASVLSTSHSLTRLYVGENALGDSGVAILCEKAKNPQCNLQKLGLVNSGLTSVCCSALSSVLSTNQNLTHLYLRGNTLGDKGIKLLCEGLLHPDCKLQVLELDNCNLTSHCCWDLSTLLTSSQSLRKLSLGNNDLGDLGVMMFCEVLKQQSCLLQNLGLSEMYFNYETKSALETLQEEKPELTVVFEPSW
Data set [3] deals with T1, Human NLRP3.
For data set [4], the target named is T1, Human NLRP3. The data set can be described thus: Human NLRP3 speck formation assay (Test A), nigericin triggered ASC-speck formation in ASC-GFP reporter monocytes.

Broadly, the IC50 is the point on the concentration scale where inhibition reaches its midpoint. Low readings indicate greater potency in that assay, high ones weaker potency in that assay. In general, solubility refers to how much of the substance goes into solution per volume. Read a high solubility as a readily soluble substance. Broadly, the inhibition is the change of the read-out against control, counted positive when it falls. A lower inhibition goes with little suppression. One may read the EC50 as the concentration needed to bring the measured effect to its halfway point. For `CC(C)(O)CNc1nnc(-c2ccc(C(F)(F)F)cc2O)c2ccncc12` [Example 70, 2-[4-[(2-hydroxy-2-methyl-propyl)amino]pyrido[3,4-d]pyridazin-1-yl]-5-(trifluoromethyl)phenol], the IC50 was more than 40000 nM on hERG, 10 nM against Human NLRP3 [2] and 26 nM against Human NLRP3 [3]. For the same compound, the solubility in the data set “Solubility (Test E)” was found to be 5 µM (≈ 1.89 µg/mL); in data set [1], 17.7 µg/mL (≈ 46.8 µM). Besides, the inhibition at 3 mg/kg in the data set with IL-1β production is 98%. The EC50 at Human NLRP3 [4] was found to be 67 nM.
